This passage reports TGI and GI50 results from PubChem BioAssay (NCI).

Some test systems named below: SW-620 colon; UO-31 renal; U251 CNS; MALME-3M melanoma; NCI-H460 lung; HCT-15 colon; OVCAR-8 ovarian; SR leukemia.
Assay in all cases: growth of human tumour cells (NCI), 48 h

“And” between values parts separate entries of the source, which are not always exact repeats. Equal entries are not always repeated.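 In this assay, cells in 96-well plates receive the compound at five concentrations for 48 hours. Endpoints are linearly interpolated between the surrounding concentrations. GI50 marks 50% less growth. TGI is the concentration that stops growth completely.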

`COC(=O)Cc1c(C2=Nc3ccccc3C2(O)CC(=O)OC)[nH]c2ccccc12` (stereo unspecified): the TGI in the experiment on SW-620 colon, with UO-31 renal, in the experiment with U251 CNS, in the experiment with MALME-3M melanoma, in the experiment with NCI-H460 lung and with HCT-15 colon was above 100 µM throughout. The TGI in the experiment on OVCAR-8 ovarian was above 100 µM.
Take `O=C(C[C@@H]1NCCC[C@H]1O)Cn1cnc2cc(Br)c(Cl)cc2c1=O`: the TGI in the experiment on SW-620 colon was 0.209 µM; in the experiment on UO-31 renal, 0.422 µM; in the experiment with U251 CNS, 0.256 µM; with MALME-3M melanoma it was 0.144 µM; with NCI-H460 lung it was above 100 µM; in the experiment on HCT-15 colon it was 0.403 µM. For the same molecule, the TGI in the experiment with OVCAR-8 ovarian came to 0.125 µM.
Consider `O=C1/C(=C/c2ccccc2S)N=C(c2ccccc2)N1c1ccc2c(c1)Sc1cc(N3C(=O)/C(=C/c4ccccc4S)N=C3c3ccccc3)ccc1N2`, for which the TGI in the experiment with SW-620 colon is 41.6 µM; with SR leukemia it was 40.4 µM; in the experiment with UO-31 renal, 29.9 µM; with U251 CNS, 40.5 µM; with NCI-H460 lung, 63.7 µM; in the experiment with HCT-15 colon, above 100 µM. This molecule came in with a TGI with OVCAR-8 ovarian of 43.1 µM.
Regarding `COc1cc(C2C(Cl)C(=O)N2c2ccc(Br)cc2)cc(I)c1O` (stereo unspecified), the TGI in the experiment with SW-620 colon, in the experiment on SR leukemia, in the experiment on UO-31 renal, in the experiment on U251 CNS, in the experiment on NCI-H460 lung and in the experiment with HCT-15 colon was above 100 µM throughout. In the experiment on OVCAR-8 ovarian, this molecule returned a TGI above 100 µM.
Take `CC1(C)CC(=O)C(/C=N/c2nc(-c3ccc(Br)cc3)cs2)=C(O)C1`: the TGI with SW-620 colon is above 100 µM; with UO-31 renal it was 73.1 µM; in the experiment on U251 CNS, above 100 µM; with NCI-H460 lung, above 100 µM; in the experiment with HCT-15 colon, 49.7 µM; with OVCAR-8 ovarian it was above 100 µM.
In the case of `Cc1ccc(-c2cc(-c3ccc(Cl)cc3)nc(/N=C3\C(=O)N(CN4CCCCC4)c4ccc(Cl)cc43)n2)cc1`, the TGI in the experiment with SW-620 colon is above 100 µM; in the experiment on U251 CNS it was 76.2 µM; in the experiment on MALME-3M melanoma it was above 100 µM; with NCI-H460 lung it was above 100 µM; in the experiment on HCT-15 colon, above 100 µM; in the experiment on OVCAR-8 ovarian, 38.8 µM.
With `N#Cc1c(N)c(-c2ccc(Cl)cc2)c(F)c2ccccc12`, the TGI in the experiment on SW-620 colon, in the experiment with UO-31 renal, in the experiment on U251 CNS, with MALME-3M melanoma, in the experiment on NCI-H460 lung and with HCT-15 colon was above 100 µM in each case. The TGI with OVCAR-8 ovarian was above 100 µM.
For `O=C(Cn1c2ccc(Br)cc2c2nc3ccccc3nc21)NC1CCCCC1`, the TGI with SW-620 colon, in the experiment with UO-31 renal, in the experiment with U251 CNS, with MALME-3M melanoma, in the experiment on NCI-H460 lung and in the experiment on HCT-15 colon was above 100 µM throughout. In addition, the TGI in the experiment with OVCAR-8 ovarian is above 100 µM.
Consider `CC1=NN(c2nc(N)nc(/C(C#N)=C/c3ccncc3)n2)C(C)(C)C1`, for which the TGI with SW-620 colon, with SR leukemia, in the experiment on UO-31 renal, with U251 CNS, with NCI-H460 lung and in the experiment on HCT-15 colon was above 100 µM in each case. This molecule yielded a TGI in the experiment with OVCAR-8 ovarian above 100 µM.
For `COc1ccccc1C(=O)c1c(N2CCCCC2)c(=O)c1=O`, the TGI with SW-620 colon, in the experiment with UO-31 renal, in the experiment with U251 CNS, in the experiment with MALME-3M melanoma, in the experiment on NCI-H460 lung and in the experiment with HCT-15 colon was above 100 µM throughout. The same molecule displayed a TGI in the experiment on OVCAR-8 ovarian above 100 µM.
Regarding `CC1=NNC(N)=N/C1=C/C(Sc1ccc(Cl)cc1)c1cccs1` (stereo unspecified), the TGI in the experiment on SW-620 colon is 41.7 µM; in the experiment with UO-31 renal, 17.7 µM; in the experiment with U251 CNS, above 100 µM; in the experiment with MALME-3M melanoma, 27.1 µM; with NCI-H460 lung, 30.5 µM; in the experiment on HCT-15 colon it was 30 µM. This molecule also had a TGI in the experiment with OVCAR-8 ovarian of 57.2 µM.
Regarding `C#CC(C)(C)Oc1cc(OC)c2c(=O)c3ccccc3n(C)c2c1`, the TGI with SW-620 colon is above 100 µM; in the experiment with SR leukemia it was 14.9 µM; in the experiment on UO-31 renal, 22.5 µM; in the experiment with U251 CNS, above 100 µM; in the experiment with NCI-H460 lung, 36 µM; with HCT-15 colon it was 44.5 µM. The TGI with OVCAR-8 ovarian stood at 68 µM.
For `O=C1NC(=O)/C(=C\c2ccncc2)N1`, the TGI in the experiment with SW-620 colon, with UO-31 renal, in the experiment on U251 CNS, in the experiment with NCI-H460 lung, in the experiment on HCT-15 colon and in the experiment with OVCAR-8 ovarian was above 100 µM in each case.
In the case of `COc1cc2c3c(n(CCCNCCO)c(=O)c2cc1OC)-c1cc2c(cc1C3=O)OCO2`, the GI50 in the experiment on SW-620 colon was 0.0228 µM; in the experiment with UO-31 renal it was 0.0183 µM and 0.181 µM; with U251 CNS it was 0.0191 µM and < 0.0383 µM; with MALME-3M melanoma it was 0.252 µM and 0.143 µM; in the experiment with HCT-15 colon, 0.548 µM and 0.657 µM. For the same molecule, the TGI in the experiment with SW-620 colon was 2.6 µM and 2.03 µM; in the experiment on U251 CNS it was 1.09 µM and 1.62 µM; in the experiment with MALME-3M melanoma it was 4.06 µM and 2 µM; in the experiment on NCI-H460 lung it was 0.23 µM and 0.0797 µM; in the experiment on HCT-15 colon it was 2.08 µM and 7.76 µM; in the experiment with OVCAR-8 ovarian, 5.34 µM.
Take `O=C1c2cc([N+](=O)[O-])ccc2NC2C(O)c3ccccc3N12` (stereo unspecified): the TGI in the experiment on SR leukemia was 56.2 µM; in the experiment on UO-31 renal, above 100 µM; with U251 CNS, above 100 µM; in the experiment with NCI-H460 lung, 97 µM; in the experiment on HCT-15 colon, above 100 µM; in the experiment with OVCAR-8 ovarian it was 65 µM.
Regarding `CCCCCCCCCCCCCCCCOCC(CC(F)(F)P(=O)(O)O)OC(C)=O` (stereo unspecified), the TGI in the experiment on SW-620 colon, in the experiment on UO-31 renal, with U251 CNS, with MALME-3M melanoma, in the experiment with NCI-H460 lung and in the experiment on HCT-15 colon was above 50 µM in each case.
Regarding `O=C1CSC2(CC(/C=C/C=C/c3ccccc3)=NN2c2cccc(S(=O)(=O)O)c2)N1c1nc2ccccc2s1` (stereo unspecified), the TGI with SW-620 colon is above 100 µM; in the experiment on SR leukemia it was 60.1 µM; in the experiment with UO-31 renal, above 100 µM; with U251 CNS, 74.4 µM; in the experiment with NCI-H460 lung it was above 100 µM; in the experiment with HCT-15 colon it was above 100 µM. In the experiment with OVCAR-8 ovarian, the TGI was above 100 µM.
For `Cc1ccc(S(=O)(=O)Nn2c(-c3ccccc3)c(C#N)c(-c3ccc([N+](=O)[O-])cc3)c(C#N)c2=O)cc1`, the TGI with SW-620 colon, in the experiment on U251 CNS, with MALME-3M melanoma, with NCI-H460 lung, in the experiment on HCT-15 colon and in the experiment on OVCAR-8 ovarian was above 100 µM in each case.
For `Oc1ccc(-c2c3c(nc4c2CCc2ccc(Br)cc2-4)-c2cc(Br)ccc2CC3)cc1`, the TGI in the experiment on UO-31 renal is 38.4 µM; with U251 CNS, 34.2 µM; with MALME-3M melanoma, 50.4 µM; in the experiment on NCI-H460 lung, 53.2 µM; in the experiment on HCT-15 colon, 35.5 µM.
On to `Cc1cnc(Cl)nc1C(C#N)c1nc2ccccc2n1C` (stereo unspecified), for which the TGI with SW-620 colon was above 100 µM; in the experiment on UO-31 renal, above 100 µM; in the experiment on U251 CNS, 45.5 µM; in the experiment with MALME-3M melanoma, above 100 µM; in the experiment on NCI-H460 lung, above 100 µM; in the experiment on HCT-15 colon, above 100 µM. For the same molecule, in the experiment with OVCAR-8 ovarian, the TGI is above 100 µM.
Take `Oc1c2cccc1Cc1cccc3c1OCCOCCOCCOCCOc1c(cccc1Cc1cccc(c1O)C3)C2`: the TGI with SW-620 colon, with SR leukemia, in the experiment with UO-31 renal, in the experiment on U251 CNS, with HCT-15 colon and in the experiment on OVCAR-8 ovarian was above 100 µM each time.
On to `CCCCCCCCCCCCC(=O)NCC(=O)NC(Cc1ccccc1)C(=O)Oc1ccc([N+](=O)[O-])cc1` (stereo unspecified), for which the TGI in the experiment with SW-620 colon, in the experiment with SR leukemia, in the experiment on UO-31 renal, with NCI-H460 lung, with HCT-15 colon and in the experiment on OVCAR-8 ovarian was above 100 µM in each case.
Consider `O=C1/C(=C/c2cccc(Oc3ccccc3)c2)N=C(c2ccccc2)N1c1nc2ccc(Sc3ccccc3)cc2[nH]1`, for which the TGI with SW-620 colon was above 100 µM; in the experiment on UO-31 renal, above 100 µM; in the experiment with U251 CNS, above 100 µM; in the experiment with MALME-3M melanoma, above 100 µM; in the experiment on NCI-H460 lung, 64 µM; in the experiment on HCT-15 colon, above 100 µM. Also, in the experiment with OVCAR-8 ovarian, the TGI is above 100 µM.
`CC1CN=C(c2cccc(OCc3ccc(COc4cccc(C5=NCC(C)N5)c4)cc3)c2)N1` (stereo unspecified): the TGI with SW-620 colon is above 100 µM; in the experiment on UO-31 renal, above 100 µM; in the experiment with U251 CNS it was above 100 µM; in the experiment with MALME-3M melanoma it was above 100 µM; in the experiment with NCI-H460 lung, 78.5 µM; in the experiment with HCT-15 colon it was above 100 µM. In the experiment with OVCAR-8 ovarian, this molecule registered a TGI above 100 µM.
For the molecule `O=C1c2ccccc2S(=O)(=O)c2ccccc21`, the TGI in the experiment with SW-620 colon, with UO-31 renal, with U251 CNS, in the experiment with MALME-3M melanoma, with NCI-H460 lung and in the experiment with HCT-15 colon was above 100 µM throughout. The molecule further displayed a TGI in the experiment on OVCAR-8 ovarian above 100 µM.
For the molecule `CCCCn1cc(C(=O)O)c(=O)c2c3sccc3ccc21`, the TGI in the experiment with SW-620 colon is above 100 µM; in the experiment on UO-31 renal it was 50 µM; with U251 CNS it was above 100 µM; in the experiment with MALME-3M melanoma, above 100 µM; in the experiment with NCI-H460 lung, above 100 µM; in the experiment on HCT-15 colon, above 100 µM. In the experiment with OVCAR-8 ovarian, this molecule gave a TGI above 100 µM.
